# In US8138158B2, “Compositions and methods for therapy for diseases characterized by defective chloride transport” (Children's Hospital & Research Center at Oakland, priority 1997, dated 2012):
# Entries after “also recorded” stand apart in the source; their conditions may differ.
# How the values were obtained:
# [1] = system: nasal potential difference; test: Nasal potential difference measurement in a human volunteer (Knowles protocol); type: in vivo; details: L-ascorbic acid 100 μM in luminal perfusate; amiloride, chloride-free solution
# Procedure: In vivo, chloride secretion may be assessed using measurements of nasal potential differences in a mammal, such as a human or a mouse. […] The nasal potential difference is measured as the electrical potential measured on the nasal mucosa with respect to a skin electrode placed on a slightly scratched skin part (see Alton et al., Eur. Respir. J. 3:922-926, 1990) or with respect to a subcutaneous needle (see Knowles et al., Hum. Gene Therapy 6:445-455, 1995). Nasal potential difference is evaluated in the presence and absence of test compound, and those compounds that results in a statistically significant increase in nasal potential difference stimulate chloride transport.
# The effect of quercetin on nasal potential difference (PD) measurement in a healthy human volunteer was measured as described by Knowles et al., Hum. Gene Therapy 6:445-455, 1995.
# Nasal potential difference measurement was performed on a human volunteer according to a protocol by Knowles et al., Hum. Gene Therapy 6:445-455, 1995. Addition of L-ascorbic acid (100 μM) to the luminal perfusate in the nose (in the presence of amiloride (blocks Na currents) and in chloride-free solution) hyperpolarized nasal potential difference (PD) by 6.3 mV (FIG. 17). […] Stimulation was reversed by washing out drugs with NaCl Ringer solution.
# [2] = system: intracellular cAMP levels; test: Cyclic AMP measurements in Calu-3 cells (competitive immunoassay); type: cell-based, human
# Procedure: Cyclic AMP measurements. […] Cellular cAMP levels were measured in non-acetylated samples using a competitive immunoassay for cAMP (R&D systems, Minneapolis, Minn.). The regulatory role of vitamin C on Cl ion channel activity was studied in Calu-3 airway cells which express large amounts of native CFTR as their major Cl conductance ([…]., Widdicombe, J. H. & Wine, J. J. (1994) Am. J. Physiol. 266, […]-[…]). […] Details of the single channel recording are illustrated in FIG. 20C. […] At negative potentials no channel openings were resolved indicating Cl-over-gluconate selectivity. Cyclic AMP is the major intracellular messenger for the activation of CFTR. We tested the possibility that L-ascorbic acid increased intracellular cAMP levels [cAMP], by either turning on cAMP production or preventing cAMP degradation. FIG. 20E compares whole cell cAMP levels of Calu-3 cells challenged with either increasing concentrations of L-ascorbic acid or the cAMP agonist forskolin.
# Calu-3 monolayers = test: Transepithelial short-circuit current (Isc) across unstimulated Calu-3 monolayers; type: cell-based, human; details: compound added to mucosal (or serosal) perfusion; L-ascorbic acid 100 μM; dehydroascorbic acid 10, 100 or 300 μM
# How it was run: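 Unstimulated Calu-3 monolayers given compound on the mucosal side at increasing concentrations. Chloride current recorded with serosal-to-mucosal chloride gradient at 0 mV, 2 mV pulses. Forskolin (20 μM, serosal) used for comparison.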
# [3] = system: nasal potential difference (NPD); test: Nasal potential difference (NPD) measurements in healthy volunteers, Example 12; type: in vivo, human
# Procedure: Nasal potential difference (NPD) measurements. Measurements of NPD were performed in healthy volunteers as described (Illek, B. & Fischer, H., Supra). The study protocol was approved by the Internal Review Board at Children's Hospital Oakland. Solutions and test drugs were perfused into one nostril at ˜5 ml/min at room temperature (23-25° C.). NaCl solution contained (in mM): 145 NaCl, 4 KCl, 1 CaCl2, 1 MgCl2, 10 Hepes, pH=7.4. In Cl free solutions all Cl salts were replaced by the respective gluconate salts. All solutions were sterile filtered before use. NPD was sensed with an Ag/AgCl/agar electrode placed in the perfusing tube with respect to an electrode placed on a slightly scratched skin part on the forearm (Alton, E. W. F. W., Currie, A. D., Logan-Sinclair, R., Warner, J. O., Hodson, M. E. & Geddes, D. M. (1990) Eur. Resp. J. 3, 922-926).
# In vivo effects of ascorbic acid on Cl transport were evaluated using the nasal potential difference (NPD) assay for Cl channel function. The Cl-selective NPD was measured in amiloride-containing (100 μm) and chloride-free solutions. These experiments served as an important control to verify the significance of the transepithelial results obtained with ascorbic acid in Calu-3 cells. In close agreement with the transepithelial measurements, NPD was progressively hyperpolarized during the exposure of the nasal mucosa to L-ascorbic acid (by −6.7±0.4 mV, n=3) and the cAMP-stimulating agonist isoproterenol (by −5.5±0.5 mV, n=4) (FIG. 21C). A dose of 300 μm L-ascorbic acid hyperpolarized NPD to 72% of the NPD in presence of the cAMP agonist isoproterenol (10 μM).
structure (smiles),measurement,setting,value
"O=C1O[C@H](C(O)CO)C(O)=C1O (stereo partly drawn) [L-ascorbic acid, L-xyloascorbic acid]",hyperpolarized nasal potential difference (PD) by,[1],6.3 mV
same,cAMP level stimulated by 100 nM forskolin,[2]; 300 μM L-ascorbate + 100 nM forskolin,did not alter the elevated cAMP level
same,resting intracellular cAMP level,"[2]; L-ascorbate from 100 μM to 10 mM, 15 min",did not result in a detectable increase
same,transepithelial chloride currents in unstimulated tissue,Calu-3 monolayers,very effectively stimulated transepithelial chloride secretion; also recorded: very effectively stimulated transepithelial chloride currents
same,NPD hyperpolarized to % of the NPD in presence of isoproterenol,[3]; 300 μm L-ascorbic acid vs isoproterenol 10 μM,72%
same,NPD hyperpolarized by,"[3]; L-ascorbic acid, amiloride (100 μm), chloride-free, n=3",−6.7±0.4 mV
